The values below are quoted from earlier work in US4451566A, “Methods and apparatus for enzymatically producing ethanol” (priority 1981, dated 1984).

Broadly, the Km is the concentration of substrate that gives half-maximal velocity.

This data set has as its system Glucokinase (2.7.1.2), present in liver. The conditions noted are these: read-out: KM for d-glucose, phosphorylation of d-glucose with ATP as phosphate donor.

The structures appear in SMILES notation.

Turning to `OC[C@H]1OC(O)[C@H](O)[C@@H](O)[C@@H]1O` (stereo partly drawn) [d-glucose], the Michaelis-Menten constant (Km) was 100 mM.
